# pEC50: −log10 of the molar value.
# Tested on: genotype 1/2 chimeric cell culture derived HCV (HCVcc)
# Test: Genotype 1/2 chimeric HCVcc assay (nano-luciferase, HCV replication)
# Format: cell-based
# Conditions: Hepatitis C virus, Huh7.5, 72 h
# Experimental: Naïve Huh-7.5 target cells were plated at 2400 cells/well in 25 μL of culture media in 384-well plates (Greiner bio-one, μ clear black). After overnight incubation, compounds serially diluted in 10 μL of cell culture media were added. After 2 h compound treatment, cells were inoculated with 40 μL of genotype 1/2 chimeric cell culture derived HCV (HCVcc) which express structural proteins of an HCV genotype 1a isolate (TN accession number EF621489) and non-structural proteins of HCV genotype 2a (JFH-1) with nano-luciferase reporter. At 72 h post infection, nano-luciferase activity (Nano-Glo™, Promega) and cellular ATP (Cell titer-Glo™, Promega) were measured as a marker for HCV replication and cytotoxicity, respectively. EC50 and CC50 were calculated by non-linear regression analyzing using GraphPad Prism (GraphPad Software).
row,Structure (SMILES),pEC50
1,COC(=O)c1c(NC(=O)NCc2c(-n3cccc3)sc3c2CCN(C)C3)sc2c1CCCC2 [Compound 155],6.00 to 7.00
2,CC(C)OC(=O)c1c(NC(=O)NCc2c(-n3cccc3)sc3c2CCN(C)C3)sc2c1CCCC2 [Compound 156],> 7.00
3,CCN1CCc2c(sc(-n3cccc3)c2CNC(=O)Nc2sc3c(c2C(=O)OC(C)C)CCCC3)C1 [Compound 157],> 7.00
4,CNCc1sc(-n2cccc2)c(CNC(=O)Nc2sc3c(c2C(=O)OC(C)(C)C)CCCC3)c1C [Compound 158],6.00 to 7.00
5,CC(C)(C)OC(=O)c1c(NC(=O)NCc2c(-c3ccc(F)cc3)sc3c2CCNC3)sc2c1CCCC2 [Compound 159],> 7.00
6,CC(C)(C)OC(=O)c1c(NC(=O)NCc2c(-c3cccc(F)c3)sc3c2CCNC3)sc2c1CCCC2 [Compound 160],> 7.00
7,CC(C)(C)OC(=O)c1c(NC(=O)NCc2c(-c3ccccc3C(F)(F)F)sc3c2CCNC3)sc2c1CCCC2 [Compound 161],6.00 to 7.00
8,Cc1nnc(-c2c(NC(=O)NCc3c(Br)sc4c3CCNC4)sc(C)c2C)o1 [Compound 162],> 7.00
9,CCOC(=O)c1c(NC(=O)NCc2c(Br)sc3c2CCNC3)sc2c1CCOC2 [Compound 163],> 7.00
10,CCOC(=O)c1c(NC(=O)NCc2c(Br)sc3c2CCNC3)sc2c1C(C)CCC2 (stereo not drawn) [Compound 164],> 7.00
11,CCOC(=O)c1c(NC(=O)NCc2c(Br)sc3c2CCNC3)sc2c1CCC(C)C2 (stereo not drawn) [Compound 165],> 7.00
12,CCOC(=O)c1c(NC(=O)NCc2c(C(F)(F)F)sc3c2CCNC3)sc2c1CCC(C)C2 (stereo not drawn) [Compound 166],> 7.00
13,CC(C)OC(=O)c1c(NC(=O)NCc2c(C(F)(F)F)sc3c2CCNC3)sc2c1CCCC2 [Compound 167],> 7.00
14,CC(C)OC(=O)c1c(NC(=O)NCc2c(C(F)(F)F)sc3c2CCN(C)C3)sc2c1CCCC2 [Compound 169],> 7.00
15,CC(C)OC(=O)c1c(NC(=O)NCc2c(C(F)(F)F)sc3c2CC[N+](C)(C)C3)sc2c1CCCC2 [Compound 170],> 7.00
16,CCN1CCc2c(sc(C(F)(F)F)c2CNC(=O)Nc2sc3c(c2C(=O)OC(C)C)CCCC3)C1 [Compound 171],> 7.00
17,CC(C)OC(=O)c1c(NC(=O)NCc2c(Br)sc3c2CCN(C)C3)sc2c1CCCC2 [Compound 172],> 7.00
18,CC(C)OC(=O)c1c(NC(=O)NCc2c(Br)sc3c2CC[N+](C)(C)C3)sc2c1CCCC2 [Compound 173],> 7.00
19,CCN1CCc2c(sc(Br)c2CNC(=O)Nc2sc3c(c2C(=O)OC(C)C)CCCC3)C1 [Compound 174],> 7.00
20,COC(=O)c1c(NC(=O)NCc2c(Br)sc3c2CCN(C)C3)sc2c1CCCC2 [Compound 175],> 7.00
21,COC(=O)c1c(NC(=O)NCc2c(Br)sc3c2CC[N+](C)(C)C3)sc2c1CCCC2 [Compound 176],> 7.00
22,CCN1CCc2c(sc(Br)c2CNC(=O)Nc2sc3c(c2C(=O)OC)CCCC3)C1 [Compound 177],> 7.00
23,CCN1CCc2c(sc(C(F)(F)F)c2CNC(=O)Nc2sc3c(c2C(=O)OC)CCCC3)C1 [Compound 178],> 7.00
24,CC(C)(C)OC(=O)c1c(NC(=O)NCc2c(-c3ccc(Cl)cc3)sc3c2CCNC3)sc2c1CCCC2 [Compound 179],> 7.00
25,CC(C)(C)OC(=O)c1c(NC(=O)NCc2c(-c3cccc(Cl)c3)sc3c2CCNC3)sc2c1CCCC2 [Compound 180],> 7.00
26,CCc1sc2c(c1CNC(=O)Nc1sc3c(c1C(=O)OC(C)(C)C)CCCC3)CCNC2 [Compound 181],> 7.00
27,Cn1ccc(-c2sc3c(c2CNC(=O)Nc2sc4c(c2C(=O)OC(C)(C)C)CCCC4)CCNC3)c1 [Compound 182],> 7.00

row,Structure (SMILES),pEC50
1,CC(C)(C)OC(=O)c1c(NC(=O)NCc2c(-c3ccoc3)sc3c2CCNC3)sc2c1CCCC2 [Compound 183],> 7.00
2,CN1CCc2c(sc(C(F)(F)F)c2CNC(=O)Nc2sc3c(c2C(=O)OC(C)(C)C)CCCC3)C1 [Compound 184],> 7.00
3,CN1CCc2c(sc(Br)c2CNC(=O)Nc2sc3c(c2C(=O)OC(C)(C)C)CCCC3)C1 [Compound 185],> 7.00
4,CC(C)N1CCc2c(sc(C(F)(F)F)c2CNC(=O)Nc2sc3c(c2C(=O)OC(C)(C)C)CCCC3)C1 [Compound 186],> 7.00
5,CC(C)N1CCc2c(sc(Br)c2CNC(=O)Nc2sc3c(c2C(=O)OC(C)(C)C)CCCC3)C1 [Compound 187],> 7.00
6,CCOC(=O)c1c(NC(=O)NCc2csc(CN(C)C)c2C)sc2c1CCCC2 [Compound 188],> 7.00
7,Cc1c(CNC(=O)Nc2sc3c(c2C(=O)OC(C)(C)C)CCCC3)csc1CN(C)C [Compound 189],> 7.00
8,CCOC(=O)c1c(NC(=O)NCc2c(C(F)(F)F)sc3c2CCNC3)sc2c1C(C)CCC2 (stereo not drawn) [Compound 190],> 7.00
9,CCOC(=O)c1c(NC(=O)NCc2c(-n3cccc3)sc3c2CCN(C)C3)sc2c1CC(C)CC2 (stereo not drawn) [Compound 191],> 7.00
10,CCOC(=O)c1c(NC(=O)NCc2c(-n3cccc3)sc3c2CCN(CC)C3)sc2c1CC(C)CC2 (stereo not drawn) [Compound 192],> 7.00
11,CCOC(=O)c1c(NC(=O)NCc2c(Br)sc3c2CCNC3)sc2c1CC(C)CC2 (stereo not drawn) [Compound 193],> 7.00
12,CCOC(=O)c1c(NC(=O)NCc2c(C(F)(F)F)sc3c2CCNC3)sc2c1CC(C)CC2 (stereo not drawn) [Compound 194],> 7.00
13,CCN1CCc2c(sc(-n3cccc3)c2CNC(=O)Nc2sc(C)c(C)c2C(=O)OC(C)C)C1 [Compound 195],> 7.00
14,Cc1sc(NC(=O)NCc2c(-n3cccc3)sc3c2CCN(C)C3)c(C(=O)OC(C)C)c1C [Compound 196],> 7.00
15,CCOC(=O)c1c(NC(=O)NCc2c(C(F)(F)F)sc3c2CCN(C)C3)sc2c1CCCC2 [Compound 197],> 7.00
16,CCOC(=O)c1c(NC(=O)NCc2c(C(F)(F)F)sc3c2CCN(C(C)C)C3)sc2c1CCCC2 [Compound 198],> 7.00
17,CCOC(=O)c1c(NC(=O)NCc2c(Br)sc3c2CCN(C)C3)sc2c1CCCC2 [Compound 199],> 7.00
18,CCOC(=O)c1c(NC(=O)NCc2c(Br)sc3c2CCN(C(C)C)C3)sc2c1CCCC2 [Compound 200],> 7.00
19,CC(C)(C)OC(=O)c1c(NC(=O)NCc2c(-c3ccc4cc[nH]c4c3)sc3c2CCNC3)sc2c1CCCC2 [Compound 201],5.00 to 6.00
20,CCN1CCc2c(sc(-n3cccc3)c2C(C)(C)NC(=O)Nc2sc3c(c2C(=O)OC(C)(C)C)CCCC3)C1 [Compound 202],5.00 to 6.00
21,CC(C)(C)OC(=O)c1c(NC(=O)NCc2c(-c3ccsc3)sc3c2CCNC3)sc2c1CCCC2 [Compound 203],> 7.00
22,CC(C)(C)OC(=O)c1c(NC(=O)NCc2c(-c3cccc(C(F)(F)F)c3)sc3c2CCNC3)sc2c1CCCC2 [Compound 204],6.00 to 7.00
23,CCOC(=O)c1c(NC(=O)NCc2c(-n3cccc3)sc3c2CCN(CC)C3)sc2c1CC(C)CC2C (stereo not drawn) [Compound 205],> 7.00
24,CCOC(=O)c1c(NC(=O)NCc2c(-n3cccc3)sc3c2CCN(C)C3)sc2c1CC(C)CC2C (stereo not drawn) [Compound 206],> 7.00
25,CCOC(=O)c1c(NC(=O)NCc2c(Br)sc3c2CCNC3)sc2c1CC(C)CC2C (stereo not drawn) [Compound 207],> 7.00
26,CCOC(=O)c1c(NC(=O)NCc2c(C(F)(F)F)sc3c2CCNC3)sc2c1CC(C)CC2C (stereo not drawn) [Compound 208],> 7.00
27,CCN1CCc2c(sc(-n3cccc3)c2CNC(=O)Nc2sc3c(c2C(=O)NNC(C)C)CCCC3)C1 [Compound 209],> 7.00
